Results: ChEMBL document CHEMBL3886524, “Heteroaryl pyridone and aza-pyridone compounds with electrophilic functionality” (2016)
pKi: −log10 of the molar value.

Biological target: Tyrosine-protein kinase BTK (Homo sapiens, UniProt Q06187)
Test: Biochemical Btk Assay: A generalized procedure for a standard biochemical Btk, Kinase Assay that can be used to test Formula I compounds is as follows. A master mix minus Btk enzyme is prepared containing 1x Cell Signaling kinase buffer (25 mM Tris-HCl, pH 7.5, 5 mM beta-glycerophosphate, 2 mM dithiothreitol, 0.1 mM Na3VO4, 10 mM MgCl2), 0.5 uM Promega PTK Biotinylated peptide substrate 2, and 0.01% BSA. A master mix plus Btk enzyme is prepared containing 1x Cell Signaling kinase buffer, 0.5 uM PTK Biotinylated peptide substrate 2, 0.01% BSA, and 100 ng/well (0.06 mU/well) Btk enzyme. Btk enzyme is prepared as follows: full length human wildtype Btk (accession number NM-000061) with a C-terminal V5 and 6xHis tag was subcloned into pFastBac vector (Invitrogen/Life Technologies) for making baculovirus carrying this epitope-tagged Btk.

Chain of Tyrosine-protein kinase BTK (Q06187 whole entry): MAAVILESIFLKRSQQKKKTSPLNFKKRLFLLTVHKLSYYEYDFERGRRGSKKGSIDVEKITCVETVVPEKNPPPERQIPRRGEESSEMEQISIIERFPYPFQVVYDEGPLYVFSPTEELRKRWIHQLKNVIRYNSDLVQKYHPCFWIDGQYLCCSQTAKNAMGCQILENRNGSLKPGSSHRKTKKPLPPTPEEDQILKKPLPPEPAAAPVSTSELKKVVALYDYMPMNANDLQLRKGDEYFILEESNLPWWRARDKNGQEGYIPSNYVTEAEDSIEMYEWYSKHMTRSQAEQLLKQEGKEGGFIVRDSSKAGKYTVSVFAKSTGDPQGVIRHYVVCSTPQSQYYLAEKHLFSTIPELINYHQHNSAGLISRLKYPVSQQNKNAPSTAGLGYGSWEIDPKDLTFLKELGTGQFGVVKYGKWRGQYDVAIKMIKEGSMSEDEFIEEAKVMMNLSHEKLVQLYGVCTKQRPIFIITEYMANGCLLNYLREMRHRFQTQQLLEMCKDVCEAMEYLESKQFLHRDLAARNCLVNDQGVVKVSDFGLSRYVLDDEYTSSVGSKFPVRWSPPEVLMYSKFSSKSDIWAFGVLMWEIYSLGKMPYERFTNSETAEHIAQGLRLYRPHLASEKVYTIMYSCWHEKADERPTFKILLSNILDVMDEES

| Structure (SMILES) | pKi |
| --- | --- |
| C=CC(=O)N[C@H]1CCCN(c2cccc(Nc3cc(-c4ccnc(N5CCn6c(cc7c6CC(C)(C)C7)C5=O)c4CO)cn(C)c3=O)n2)C1 | 9.05 |
| CC#CC(=O)NCCOc1cccc(Nc2cc(-c3ccnc(N4CCn5c(cc6c5CC(C)(C)C6)C4=O)c3CO)cn(C)c2=O)n1 | 8.63 |
| C=CC(=O)NCCNc1cccc(Nc2cc(-c3ccnc(N4CCn5c(cc6c5CC(C)(C)C6)C4=O)c3CO)cn(C)c2=O)n1 | 8.36 |
| C=C(C#N)C(=O)NCCOc1cccc(Nc2cc(-c3ccnc(N4CCn5c(cc6c5CC(C)(C)C6)C4=O)c3CO)cn(C)c2=O)n1 | 8.77 |
| C=CC(=O)NCCN(C)c1cccc(Nc2cc(-c3ccnc(N4CCn5c(cc6c5CC(C)(C)C6)C4=O)c3CO)cn(C)c2=O)n1 | 9.17 |
